Measured values reported in US10189809B2, “SGC stimulators” (Ironwood Pharmaceuticals, Inc., priority 2010, dated 2019).
Blank lines part the entries; values can stand above or below the compound they belong to.

Assays:
[1] = target: T1, Human soluble guanylate cyclase enzyme (hsGC) (Homo sapiens (Human), UniProt Q02108+Q02153); assay: Purified human sGC enzyme synergy assay in the presence of 1 μM sodium nitroprusside (SNP); assay type: biochemical; settings: 30 μM compound, with the addition of SNP
In short: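 Purified human sGC (5 ng) incubated 30 min at 37 °C with compounds at 10 or 30 μM, 1 μM sodium nitroprusside, 300 μM GTP and 1 mM IBMX in Tris pH 8.0 with MgCl2/DTT. cGMP quantified against a standard curve, and specific activity expressed as fold-change over DMSO control.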

[2] = target: T1, Human soluble guanylate cyclase enzyme (hsGC); assay: Purified human sGC enzyme activity assay; assay type: biochemical; settings: without the addition of SNP; for sGC Enzyme (fold increase at 30 μM): 30 μM compound
In short: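 Purified human sGC (5 ng) incubated 30 min at 37° C with compound at 10 or 30 μM final in pH 8.0 Tris with 300 μM GTP, 2 mM MgCl2, 2 mM DTT and 1 mM IBMX, then stopped with cold methanol. cGMP quantified against a standard curve. Specific activity (nmol cGMP/mg sGC/min) expressed as fold-change over DMSO control.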

[3] = target: soluble guanylate cyclase (sGC) (Homo sapiens (Human), UniProt Q02108+Q02153); assay: sGC-HEK-cGMP assay run with SNP incubation (HEK WC assay); assay type: cell-based; settings: for Emax at 10 µM: read-out: HEK WC Assay (% Emax at 10 μM/with 10 uM SNP); for Emax at 30 µM: read-out: HEK WC Assay (% Emax at 30 μM/with 10 uM SNP)
In short: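 HEK293 cells with endogenous sGC were pretreated with 0.5 mM IBMX for 15 min at 37 °C, then exposed to test compound plus sodium nitroprusside for 10 min at 37 °C.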

Thoracic aortic rings = assay: Alternative thoracic aortic rings assay (Example 19b; resting tension as 100% inhibition); design: species or system rat; settings: Table 10A; for Percent Relaxation at 1 μM: printed as number or words instead of code; for inhibition at 3 µM / inhibition at 10 µM / inhibition at 1 µM / EC50: Rattus norvegicus; for inhibition at 3 µM: read-out: Percent Relaxation at 3 μM; for inhibition at 10 µM: read-out: Percent Relaxation at 10 μM; for inhibition at 1 µM: read-out: Percent Relaxation at 1 μM; for EC50: read-out: Aortic Ring EC50
In short: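 Aortic rings (~2 mm) from male Sprague-Dawley rats (275-299 g) held at 1.0 g resting tension in Krebs-Henseleit at 37 °C under 95% O2/5% CO2, then precontracted with 100 ng/mL phenylephrine. Compounds in DMSO added cumulatively; relaxation recorded by force transducer and EC50 taken from concentration-response curves.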

Chain of soluble guanylate cyclase (sGC) (Q02153 whole entry): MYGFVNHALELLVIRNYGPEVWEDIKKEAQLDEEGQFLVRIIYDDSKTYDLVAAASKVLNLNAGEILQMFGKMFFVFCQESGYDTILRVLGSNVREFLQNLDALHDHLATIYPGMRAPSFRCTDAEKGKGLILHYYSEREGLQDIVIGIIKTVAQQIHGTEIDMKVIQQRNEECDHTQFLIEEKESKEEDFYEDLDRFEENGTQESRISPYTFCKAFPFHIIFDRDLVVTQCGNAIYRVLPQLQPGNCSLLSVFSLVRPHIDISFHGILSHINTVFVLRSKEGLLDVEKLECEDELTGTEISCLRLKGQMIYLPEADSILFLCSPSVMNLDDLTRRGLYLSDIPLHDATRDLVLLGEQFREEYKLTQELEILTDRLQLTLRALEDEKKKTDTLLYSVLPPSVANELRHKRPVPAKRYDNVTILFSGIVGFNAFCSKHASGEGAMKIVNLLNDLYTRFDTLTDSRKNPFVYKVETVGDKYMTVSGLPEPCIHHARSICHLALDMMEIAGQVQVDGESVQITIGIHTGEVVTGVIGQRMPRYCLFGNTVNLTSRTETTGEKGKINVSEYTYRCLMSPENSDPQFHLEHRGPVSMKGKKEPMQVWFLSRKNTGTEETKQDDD
Chain of soluble guanylate cyclase (sGC) (Q02108 whole entry): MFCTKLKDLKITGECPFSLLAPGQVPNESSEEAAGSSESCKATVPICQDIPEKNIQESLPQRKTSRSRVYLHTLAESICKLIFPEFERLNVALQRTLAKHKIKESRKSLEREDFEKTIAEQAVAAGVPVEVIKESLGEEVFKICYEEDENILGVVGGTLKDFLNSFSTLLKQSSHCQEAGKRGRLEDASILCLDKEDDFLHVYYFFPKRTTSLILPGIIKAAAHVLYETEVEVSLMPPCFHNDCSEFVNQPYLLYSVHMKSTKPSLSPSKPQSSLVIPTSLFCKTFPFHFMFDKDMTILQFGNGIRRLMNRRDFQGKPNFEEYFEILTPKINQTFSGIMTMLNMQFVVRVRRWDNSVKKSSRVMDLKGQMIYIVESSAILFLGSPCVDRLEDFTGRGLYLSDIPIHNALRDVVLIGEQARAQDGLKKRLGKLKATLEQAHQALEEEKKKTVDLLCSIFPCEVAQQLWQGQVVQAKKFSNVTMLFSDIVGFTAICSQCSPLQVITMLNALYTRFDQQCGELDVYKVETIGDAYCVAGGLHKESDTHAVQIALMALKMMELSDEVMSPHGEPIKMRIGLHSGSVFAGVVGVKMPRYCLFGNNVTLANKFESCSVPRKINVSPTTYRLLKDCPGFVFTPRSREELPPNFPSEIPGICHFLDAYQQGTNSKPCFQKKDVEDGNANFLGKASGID
T1 sequence (Q02153 whole entry): as the sequence (Q02153 whole entry) above
T1 sequence (Q02108 whole entry): as the sequence (Q02108 whole entry) above

sGC Enzyme (fold increase at 30 μM with SNP) [1]: D (D = 10 to <30 fold increase)
sGC Enzyme (fold increase at 30 μM) [2]: D (D = 10 to <30 fold increase)
Emax at 10 µM [3]: 40 to 60%
Emax at 30 µM [3]: 40 to 60%
EC50 (Thoracic aortic rings): < 2 µM
SMILES: Nc1ccnc(-c2cc(-c3ccon3)n(Cc3ccccc3F)n2)n1 [Compound I-97]
inhibition at 1 µM (Thoracic aortic rings): 80 to 100%
inhibition at 3 µM (Thoracic aortic rings; 3 μM): 100 to 120%
inhibition at 10 µM (Thoracic aortic rings): 100 to 120%

sGC Enzyme (fold increase at 30 μM with SNP) [1]: D (D = 10 to <30 fold increase)
sGC Enzyme (fold increase at 30 μM) [2]: B (B = 2 to <5 fold increase)
Emax at 10 µM [3]: 20 to 40%
Emax at 30 µM [3]: 20 to 40%
EC50 (Thoracic aortic rings): < 2 µM
SMILES: Nc1ccnc(-c2cc(-c3cocn3)n(Cc3ccccc3F)n2)n1 [Compound I-98]
inhibition at 1 µM (Thoracic aortic rings): 60 to 80%
inhibition at 3 µM (Thoracic aortic rings; 3 μM): 100 to 120%
inhibition at 10 µM (Thoracic aortic rings): 100 to 120%

sGC Enzyme (fold increase at 30 μM with SNP) [1]: C (C = 5 to <10 fold increase)
sGC Enzyme (fold increase at 30 μM) [2]: B (B = 2 to <5 fold increase)
Emax at 10 µM [3]: 20 to 40%
Emax at 30 µM [3]: 40 to 60%
EC50 (Thoracic aortic rings): < 2 µM
SMILES: COC(=O)Nc1c(N)nc(-c2cc(-c3ncco3)n(Cc3ccccc3F)n2)nc1N [Compound I-99]
inhibition at 1 µM (Thoracic aortic rings): 0 to 10%
inhibition at 3 µM (Thoracic aortic rings; 3 μM): 20 to 40%
inhibition at 10 µM (Thoracic aortic rings): 80 to 100%

sGC Enzyme (fold increase at 30 μM with SNP) [1]: C (C = 5 to <10 fold increase)
sGC Enzyme (fold increase at 30 μM) [2]: B (B = 2 to <5 fold increase)
Emax at 10 µM [3]: 20 to 40%
Emax at 30 µM [3]: 40 to 60%
EC50 (Thoracic aortic rings): < 2 µM
SMILES: COC(=O)N(C)c1c(N)nc(-c2cc(-c3ncco3)n(Cc3ccccc3F)n2)nc1N [Compound I-100]
inhibition at 1 µM (Thoracic aortic rings): 20 to 40%
inhibition at 3 µM (Thoracic aortic rings; 3 μM): 60 to 80%
inhibition at 10 µM (Thoracic aortic rings): 100 to 120%

sGC Enzyme (fold increase at 30 μM with SNP) [1]: C (C = 5 to <10 fold increase)
sGC Enzyme (fold increase at 30 μM) [2]: B (B = 2 to <5 fold increase)
Emax at 10 µM [3]: 40 to 60%
Emax at 30 µM [3]: 20 to 40%
EC50 (Thoracic aortic rings): < 2 µM
SMILES: Nc1nc(-c2cc(-c3ccon3)n(Cc3ccccc3F)n2)ncc1-c1ccncc1 [Compound I-102]
inhibition at 1 µM (Thoracic aortic rings): 20 to 40%
inhibition at 3 µM (Thoracic aortic rings; 3 μM): 60 to 80%
inhibition at 10 µM (Thoracic aortic rings): 80 to 100%

sGC Enzyme (fold increase at 30 μM with SNP) [1]: D (D = 10 to <30 fold increase)
sGC Enzyme (fold increase at 30 μM) [2]: D (D = 10 to <30 fold increase)
EC50 (Thoracic aortic rings): < 2 µM
SMILES: CC(C)(C)OC(=O)Nc1cnc(-c2cc(-c3ccon3)n(Cc3ccccc3F)n2)nc1N [Compound I-106]
inhibition at 1 µM (Thoracic aortic rings): 20 to 40%
inhibition at 3 µM (Thoracic aortic rings; 3 μM): 60 to 80%
inhibition at 10 µM (Thoracic aortic rings): 100 to 120%

sGC Enzyme (fold increase at 30 μM with SNP) [1]: C (C = 5 to <10 fold increase)
sGC Enzyme (fold increase at 30 μM) [2]: B (B = 2 to <5 fold increase)
Emax at 10 µM [3]: 60 to 80%
Emax at 30 µM [3]: 40 to 60%
SMILES: Nc1nc(-c2cc(-c3ccon3)n(Cc3ccccc3F)n2)ncc1-c1ccccn1 [Compound I-128]

sGC Enzyme (fold increase at 30 μM with SNP) [1]: D (D = 10 to <30 fold increase)
sGC Enzyme (fold increase at 30 μM) [2]: B (B = 2 to <5 fold increase)
Emax at 10 µM [3]: 60 to 80%
Emax at 30 µM [3]: 40 to 60%
SMILES: CCOC(=O)c1cnc(-c2cc(-c3ccon3)n(Cc3ccccc3F)n2)nc1N [Compound I-131]

sGC Enzyme (fold increase at 30 μM with SNP) [1]: C (C = 5 to <10 fold increase)
sGC Enzyme (fold increase at 30 μM) [2]: B (B = 2 to <5 fold increase)
Emax at 10 µM [3]: 40 to 60%
Emax at 30 µM [3]: 20 to 40%
SMILES: Nc1nc(-c2cc(-c3ccon3)n(Cc3ccccc3F)n2)ncc1C(=O)O [Compound I-132]

sGC Enzyme (fold increase at 30 μM with SNP) [1]: B (B = 2 to <5 fold increase)
sGC Enzyme (fold increase at 30 μM) [2]: A (A = no increase to <2 fold increase)
Emax at 10 µM [3]: 20 to 40%
Emax at 30 µM [3]: 40 to 60%
SMILES: CC(C)(O)c1cnc(-c2cc(-c3ccon3)n(Cc3ccccc3F)n2)nc1O [Compound I-133]

The next lines start with the compound.

SMILES: COC(=O)Nc1c(N)nc(-c2cc(-c3ccsc3)n(Cc3ccccc3F)n2)nc1N [Compound I-71]
sGC Enzyme (fold increase at 30 μM with SNP) [1]: D (D = 10 to <30 fold increase)
sGC Enzyme (fold increase at 30 μM) [2]: C (C = 5 to <10 fold increase)
Emax at 10 µM [3]: 10 to 20%
Emax at 30 µM [3]: 10 to 20%
Percent Relaxation at 1 μM (Thoracic aortic rings): No relaxation
inhibition at 3 µM (Thoracic aortic rings; 3 μM): 10 to 20%
inhibition at 10 µM (Thoracic aortic rings): 60 to 80%

SMILES: COC(=O)N(C)c1c(N)nc(-c2cc(-c3ccsc3)n(Cc3ccccc3F)n2)nc1N [Compound I-72]
sGC Enzyme (fold increase at 30 μM with SNP) [1]: D (D = 10 to <30 fold increase)
sGC Enzyme (fold increase at 30 μM) [2]: D (D = 10 to <30 fold increase)
Emax at 10 µM [3]: 20 to 40%
Emax at 30 µM [3]: 20 to 40%
Percent Relaxation at 1 μM (Thoracic aortic rings): 3.1
inhibition at 3 µM (Thoracic aortic rings; 3 μM): 20 to 40%
inhibition at 10 µM (Thoracic aortic rings): 60 to 80%

SMILES: Fc1ccccc1Cn1nc(-c2ncccn2)cc1-c1ccccn1 [Compound I-75]
sGC Enzyme (fold increase at 30 μM with SNP) [1]: D (D = 10 to <30 fold increase)
sGC Enzyme (fold increase at 10 μM) ([2]; 10 μM compound): A (A = no increase to <2 fold increase)
sGC Enzyme (fold increase at 30 μM) [2]: B (B = 2 to <5 fold increase)
Emax at 10 µM [3]: 10 to 20%
Emax at 30 µM [3]: 20 to 40%
inhibition at 1 µM (Thoracic aortic rings): 10 to 20%
inhibition at 3 µM (Thoracic aortic rings; 3 μM): 20 to 40%
inhibition at 10 µM (Thoracic aortic rings): 60 to 80%
EC50 (Thoracic aortic rings): 2 to 4 µM

SMILES: Nc1ccnc(-c2cc(-c3ccccc3)n(Cc3ccccc3F)n2)n1 [Compound I-82]
sGC Enzyme (fold increase at 30 μM with SNP) [1]: C (C = 5 to <10 fold increase)
sGC Enzyme (fold increase at 30 μM) [2]: C (C = 5 to <10 fold increase)
Emax at 10 µM [3]: 10 to 20%
Emax at 30 µM [3]: 10 to 20%
inhibition at 1 µM (Thoracic aortic rings): 10 to 20%
inhibition at 3 µM (Thoracic aortic rings; 3 μM): 20 to 40%
inhibition at 10 µM (Thoracic aortic rings): 80 to 100%
EC50 (Thoracic aortic rings): 4 to 8 µM

SMILES: COC(=O)Nc1c(N)nc(-c2cc(-c3ccccc3)n(Cc3ccccc3F)n2)nc1N [Compound I-83]
sGC Enzyme (fold increase at 30 μM with SNP) [1]: C (C = 5 to <10 fold increase)
sGC Enzyme (fold increase at 30 μM) [2]: D (D = 10 to <30 fold increase)
inhibition at 1 µM (Thoracic aortic rings): 10 to 20%
inhibition at 3 µM (Thoracic aortic rings; 3 μM): 20 to 40%
inhibition at 10 µM (Thoracic aortic rings): 60 to 80%
EC50 (Thoracic aortic rings): 4 to 8 µM

SMILES: COC(=O)N(C)c1c(N)nc(-c2cc(-c3ccccc3)n(Cc3ccccc3F)n2)nc1N [Compound I-84]
sGC Enzyme (fold increase at 30 μM with SNP) [1]: B (B = 2 to <5 fold increase)
sGC Enzyme (fold increase at 30 μM) [2]: C (C = 5 to <10 fold increase)
Percent Relaxation at 1 μM (Thoracic aortic rings): no relaxation
Percent Relaxation at 3 μM (Thoracic aortic rings; 3 μM, printed as words instead of code): no relaxation
inhibition at 10 µM (Thoracic aortic rings): 20 to 40%
EC50 (Thoracic aortic rings): 8 to 12 µM

SMILES: Fc1ccccc1Cn1nc(-c2ncccn2)cc1-c1cscn1 [Compound I-85]
sGC Enzyme (fold increase at 30 μM with SNP) [1]: D (D = 10 to <30 fold increase)
sGC Enzyme (fold increase at 30 μM) [2]: C (C = 5 to <10 fold increase)
Emax at 30 µM [3]: 100 to 120%
inhibition at 1 µM (Thoracic aortic rings): 60 to 80%
inhibition at 3 µM (Thoracic aortic rings; 3 μM): 80 to 100%
inhibition at 10 µM (Thoracic aortic rings): 100 to 120%
EC50 (Thoracic aortic rings): < 2 µM

SMILES: Nc1ccnc(-c2cc(-c3nccs3)n(Cc3ccccc3F)n2)n1 [Compound I-86]
sGC Enzyme (fold increase at 30 μM with SNP) [1]: D (D = 10 to <30 fold increase)
sGC Enzyme (fold increase at 30 μM) [2]: C (C = 5 to <10 fold increase)
Emax at 10 µM [3]: 40 to 60%
Emax at 30 µM [3]: 60 to 80%
inhibition at 1 µM (Thoracic aortic rings): 40 to 60%
inhibition at 3 µM (Thoracic aortic rings; 3 μM): 80 to 100%
inhibition at 10 µM (Thoracic aortic rings): 100 to 120%
EC50 (Thoracic aortic rings): < 2 µM

SMILES: Nc1ccnc(-c2cc(-c3ncco3)n(Cc3ccccc3F)n2)n1 [Compound I-87]
sGC Enzyme (fold increase at 30 μM with SNP) [1]: D (D = 10 to <30 fold increase)
sGC Enzyme (fold increase at 30 μM) [2]: D (D = 10 to <30 fold increase)
Emax at 10 µM [3]: 60 to 80%
Emax at 30 µM [3]: 100 to 120%
inhibition at 1 µM (Thoracic aortic rings): 60 to 80%
inhibition at 3 µM (Thoracic aortic rings; 3 μM): 80 to 100%
inhibition at 10 µM (Thoracic aortic rings): 100 to 120%
EC50 (Thoracic aortic rings): < 2 µM

SMILES: Nc1ccnc(-c2cc(-c3cscn3)n(Cc3ccccc3F)n2)n1 [Compound I-92]
sGC Enzyme (fold increase at 30 μM with SNP) [1]: D (D = 10 to <30 fold increase)
sGC Enzyme (fold increase at 30 μM) [2]: B (B = 2 to <5 fold increase)
Emax at 10 µM [3]: 20 to 40%
Emax at 30 µM [3]: 20 to 40%
inhibition at 1 µM (Thoracic aortic rings): 60 to 80%
inhibition at 3 µM (Thoracic aortic rings; 3 μM): 80 to 100%
EC50 (Thoracic aortic rings): < 2 µM
